Experimental data taken from article PMC8286840, “Identifying SARS-CoV-2 antiviral compounds by screening for small molecule inhibitors of Nsp3 papain-like protease” (Biochemical Journal, 2021).
Structures can show the parent of a compound that is named as a salt. Where two headings read alike, the source gives them in different places. Where a SMILES comes first, the peptide text is derived from it. Side-chain parts run from the residue outwards. The star is where a group is joined. Nicotinoyl = O=C(c1cccnc1)*; Cbz = O=C(OCc1ccccc1)*

Columns and labels:
[1] = target: T1, SARS-CoV-2 PLpro (nsp3 1564–1878) (Severe acute respiratory syndrome coronavirus 2, UniProt P0DTD1); test: biochemical; set-up: FRET-quenched peptide (Pro3) cleavage by PLpro, 10 min pre-incubation, slope over 20 min, normalised to no-compound control; details: low concentration screen, read-out: % of control remaining
Experimental: The plates were organized with columns 3–22 containing the compounds; the remaining columns were used for reaction controls including substrate only and substrate with enzyme but no compound (Figure 3Aii). The PLpro enzyme was pre-incubated with the compounds for 10 min, and then the reaction was initiated by the addition of substrate. […] We incubated the inhibitors with PLpro before the enzymatic reaction so that the slow-binding inhibitors will not be missed out [21]. […] Fluorescence was read on a Spark multimode microplate reader (Tecan) with an excitation wavelength at 330 nm and emission wavelength at 420 nm. […] An amount of 5 µl of the enzyme was pre-incubated with compounds for 10 min before the addition of 15 µl substrate. Fluorescence was monitored at 2 min for 20 min with 3 min intervals giving a total of seven readings.

[2] = target: T1, SARS-CoV-2 PLpro (nsp3 1564–1878); test: biochemical; set-up: FRET-quenched peptide (Pro3) cleavage by PLpro, 10 min pre-incubation, slope over 20 min, normalised to no-compound control; details: high concentration screen, read-out: % of control remaining

Cc1cccn2c(=O)c(/C=C(\C#N)c3nc4ccccc4s3)c(Oc3ccc(F)cc3)nc12 [CCG-63808]
remaining activity at 1.25 µM ([1]; Well no.=7037): 102% | remaining activity at 3.75 µM ([2]; Well no.=7037): 101%

O=C(Nc1ccc(Cl)cc1)C1CCCN(C(=O)c2cccc(-c3ccco3)c2)C1 (stereo not drawn) [CCG-203971]
remaining activity at 1.25 µM ([1]; Well no.=6005): 103% | remaining activity at 3.75 µM ([2]; Well no.=6005): 101%

CC(=O)C1=C(O)C(=O)N(c2ccc(Cl)cc2F)[C@@H]1C1CCCCC1 [CCR2-RA-[R]]
remaining activity at 1.25 µM ([1]; Well no.=8118): 100% | remaining activity at 1.25 µM ([1]; Well no.=8229): 96.6% | remaining activity at 3.75 µM ([2]; Well no.=8118): 95.9% | remaining activity at 3.75 µM ([2]; Well no.=8229): 91.4%

NC(=O)c1cc(-c2ccc(S(=O)(=O)[C@H]3CC[C@H](Nc4ccc(C(F)(F)F)cn4)CC3)cc2)ccn1 [CCR6 inhibitor 1]
remaining activity at 1.25 µM ([1]; Well no.=8609): 103% | remaining activity at 3.75 µM ([2]; Well no.=8609): 99%

NC1(Cc2ccc(Cl)cc2)CCN(c2ncnc3[nH]ccc23)CC1 [CCT128930]
remaining activity at 1.25 µM ([1]; Well no.=5302): 97.5% | remaining activity at 3.75 µM ([2]; Well no.=5302): 95.6%

CN(C)c1ccc(-c2nc3ncc(Cl)c(N4CCN(CC(=O)Nc5nccs5)CC4)c3[nH]2)cc1 [CCT129202]
remaining activity at 1.25 µM ([1]; Well no.=5253): 88.1% | remaining activity at 3.75 µM ([2]; Well no.=5253): 93.9%

Cc1cc(CN2CCN(c3c(Br)cnc4nc(-c5ccc(N6CCN(C)CC6)cc5)[nH]c34)CC2)no1 [CCT137690]
remaining activity at 1.25 µM ([1]; Well no.=5033): 98% | remaining activity at 3.75 µM ([2]; Well no.=5033): 99.3%

NC(=O)c1cc(S(=O)(=O)Nc2ccc3cc(C4CC4)[nH]c3c2)ccc1O [CD73-IN-1]
remaining activity at 1.25 µM ([1]; Well no.=8325): 95.7% | remaining activity at 3.75 µM ([2]; Well no.=8325): 94.5%

CN1CCN(c2cccc(Nc3nc4c(-c5ccc(S(C)(=O)=O)cc5)cccn4n3)c2)CC1 [CEP33779]
remaining activity at 1.25 µM ([1]; Well no.=5129): 104% | remaining activity at 3.75 µM ([2]; Well no.=5129): 106%

COC(=O)[C@H](CCCCn1cccc1CCC(=O)O)NC(=O)CNC(C)=O [CEP dipeptide 1]
remaining activity at 1.25 µM ([1]; Well no.=8606): 98.6% | remaining activity at 3.75 µM ([2]; Well no.=8606): 96.4%

COc1cc2ncnc(Oc3cccc(NC(=O)Nc4cc(C(C)(C)C(F)(F)F)on4)c3)c2cc1OC [CEP-32496]
remaining activity at 1.25 µM ([1]; Well no.=5362): 100% | remaining activity at 3.75 µM ([2]; Well no.=5362): 96.8%

COc1cccc(-c2cn(-c3ccc(CCN4CCC(O)CC4)cc3)c3ncnc(N)c23)c1 [CGP77675]
remaining activity at 1.25 µM ([1]; Well no.=5466): 93.4% | remaining activity at 3.75 µM ([2]; Well no.=5466): 99.9%

Cn1cc(C(F)(F)F)nc1-c1ccc(OCC(O)CNCCOc2ccc(O)c(C(N)=O)c2)cc1 (stereo not drawn) [CGP 20712A methanesulfonate]
remaining activity at 1.25 µM ([1]; Well no.=585): 105% | remaining activity at 3.75 µM ([2]; Well no.=585): 106%

O=C1NC(=O)c2cc(Nc3ccc(F)cc3)c(Nc3ccc(F)cc3)cc21 [CGP 53353 - 5,6-bis[(4-Fluorophenyl)amino]-1H-isoindole-1,3(2H)-dione]
remaining activity at 1.25 µM ([1]; Well no.=2530): 101% | remaining activity at 3.75 µM ([2]; Well no.=2530): 102%

Nc1ncnc2n[nH]c(Nc3ccc(F)cc3)c12 [CGP 57380 - N3-(4-Fluorophenyl)-1H-pyrazolo-[3,4-d]pyrimidine-3,4-diamine]
remaining activity at 1.25 µM ([1]; Well no.=2624): 92.8% | remaining activity at 3.75 µM ([2]; Well no.=2624): 92.7%

CC(C)(CO)Cc1cc(C(C)(C)C)c(O)c(C(C)(C)C)c1 [CGP-7930]
remaining activity at 1.25 µM ([1]; Well no.=43): 101% | remaining activity at 3.75 µM ([2]; Well no.=43): 102%

CC(C)(C=O)Cc1cc(C(C)(C)C)c(O)c(C(C)(C)C)c1 [CGP-13501]
remaining activity at 1.25 µM ([1]; Well no.=91): 105% | remaining activity at 3.75 µM ([2]; Well no.=91): 105%

O=C1CSC(c2ccccc2Cl)c2cc(Cl)ccc2N1 (stereo not drawn) [CGP-37157]
remaining activity at 1.25 µM ([1]; Well no.=5845): 106% | remaining activity at 3.75 µM ([2]; Well no.=5845): 106%

CC[C@H](C)[C@H](NC(=O)[C@@H]1CCCN1C(=O)[C@H](Cc1cnc[nH]1)NC(=O)[C@H](CCCCNC(=O)[C@H](CCCN=C(N)N)NC(=O)OCc1ccccc1)NC(=O)[C@H](Cc1ccc(O)cc1)NC(=O)c1cccnc1)C(=O)O [CGP-42112] (Nicotinoyl-YK([Arg-Cbz])HPI-OH)
remaining activity at 1.25 µM ([1]; Well no.=7652): 98% | remaining activity at 3.75 µM ([2]; Well no.=7652): 97.2%

CCn1cnc2c(Nc3cccc(Cl)c3)nc(N[C@@H]3CCCC[C@@H]3N)nc21 [CGP-74514A hydrochloride]
remaining activity at 1.25 µM ([1]; Well no.=268): 92.8% | remaining activity at 3.75 µM ([2]; Well no.=268): 94.1%

COc1ccc(-n2[nH]c3c(cnc4ccccc43)c2=O)cc1 [CGS 9895]
remaining activity at 1.25 µM ([1]; Well no.=5590): 99.6% | remaining activity at 3.75 µM ([2]; Well no.=5590): 96.5%

CCNC(=O)[C@H]1O[C@@H](n2cnc3c(N)nc(NCCc4ccc(CCC(=O)O)cc4)nc32)[C@H](O)[C@@H]1O [CGS 21680 (Hydrochloride)]
remaining activity at 1.25 µM ([1]; Well no.=7001): 99.7% | remaining activity at 1.25 µM ([1]; Well no.=8417): 95.9% | remaining activity at 3.75 µM ([2]; Well no.=7001): 95.1% | remaining activity at 3.75 µM ([2]; Well no.=8417): 94.7%

CN1CCN(c2nc3cc(C(F)(F)F)ccc3n3cccc23)CC1 [CGS-12066A maleate]
remaining activity at 1.25 µM ([1]; Well no.=437): 102% | remaining activity at 3.75 µM ([2]; Well no.=437): 101%

Nc1nc2ccc(Cl)cc2c2nc(-c3ccco3)nn12 [CGS-15943]
remaining activity at 1.25 µM ([1]; Well no.=393): 104% | remaining activity at 3.75 µM ([2]; Well no.=393): 104%

CCNC(=O)[C@H]1O[C@@H](n2cnc3c(N)nc(NCCc4ccc(CCC(=O)O)cc4)nc32)[C@H](O)[C@@H]1O [CGS-21680 hydrochloride]
remaining activity at 1.25 µM ([1]; Well no.=391): 105% | remaining activity at 3.75 µM ([2]; Well no.=391): 99.7%

CS(=O)(=O)N1CCc2c(-c3cnc(N)nc3)nc(N3CCOCC3)nc21 [CH5132799]
remaining activity at 1.25 µM ([1]; Well no.=5348): 95.8% | remaining activity at 3.75 µM ([2]; Well no.=5348): 96%

NC(=O)CCCSc1nc(N)nc(-c2c(Cl)cc3c4c(cccc24)COC3)n1 [CH5138303]
remaining activity at 1.25 µM ([1]; Well no.=8668): 95% | remaining activity at 3.75 µM ([2]; Well no.=8668): 90.8%

CCc1cc2c(cc1N1CCC(N3CCOCC3)CC1)C(C)(C)c1[nH]c3cc(C#N)ccc3c1C2=O [CH5424802]
remaining activity at 1.25 µM ([1]; Well no.=5077): 104% | remaining activity at 3.75 µM ([2]; Well no.=5077): 104%

CC[C@H](C)[C@H](NC(=O)OCc1ccccc1)C(=O)N[C@@H](CCC(=O)O)C(=O)N1CCC[C@H]1C(=O)N[C@@H](Cc1ccccc1)C(=O)OC [CH 5450] (Cbz-IEPF-OMe)
remaining activity at 1.25 µM ([1]; Well no.=8516): 101% | remaining activity at 3.75 µM ([2]; Well no.=8516): 102%

Cc1ccccc1N=Nc1ccc(NC(=O)c2ccnn2C)c(C)c1 [CH-223191]
remaining activity at 1.25 µM ([1]; Well no.=5835): 97.1% | remaining activity at 1.25 µM ([1]; Well no.=7892): 99.1% | remaining activity at 3.75 µM ([2]; Well no.=5835): 98.7% | remaining activity at 3.75 µM ([2]; Well no.=7892): 95.5%

Cc1cnc(-c2cnc(NCCNc3ccc(C#N)cn3)nc2-c2ccc(Cl)cc2Cl)[nH]1 [CHIR99021]
remaining activity at 1.25 µM ([1]; Well no.=5511): 99.8% | remaining activity at 3.75 µM ([2]; Well no.=5511): 101%

O=c1[nH]c2ccc(Cl)cc2c(N[C@@H]2CN3CCC2CC3)c1-c1nc2ccccc2[nH]1 [CHIR-124]
remaining activity at 1.25 µM ([1]; Well no.=5338): 96.2% | remaining activity at 3.75 µM ([2]; Well no.=5338): 97.2%

CN1CCN(c2ccc3nc(-c4c(N)c5c(F)cccc5[nH]c4=O)[nH]c3c2)CC1 [CHIR-258]
remaining activity at 1.25 µM ([1]; Well no.=2757): 96.4% | remaining activity at 3.75 µM ([2]; Well no.=2757): 95.3%
